Laboratory results taken from patent US20120295965A1, “FUSED THIOPHENES AS DUAL INHIBITORS OF EGFR/VEGFR AND THEIR USE IN THE TREATMENT OF CANCER” (priority 2009, published 2012).

Tests used:
HT29 cells = details: up to 100 nM; un-starved HT29 cells; data not shown
EGF response in HT29 = test: Epic label-free DMR biosensor cellular assay, EGF marker in HT29; assay type: cell-based, human
Method: (§1) All cell lines were obtained from American Type Cell Culture (Manassas, Va.). The cell culture medium was as follows: (1) Dulbecco's modified Eagle's medium (DMEM) supplemented with 10% fetal bovine serum (FBS), 4.5 g/liter glucose, 2 mM glutamine, and antibiotics for human epidermoid carcinoma A431; and (2) McCoy's 5a Medium Modified supplemented with 10% FBS, 4.5 g/liter glucose, 2 mM glutamine, and antibiotics for human colorectal adenocarcinoma HT29.
(§2) Cells were typically grown using ˜1 to 2×10^4 cells per well at passage 3 to 15 suspended in 50 μl of the corresponding culture medium in the biosensor microplate, and were cultured at 37° C. under air/5% CO2 for ˜1 day. Except for A431 which underwent one day culture followed by one starvation in serum free medium, all other cells were directly assayed without starvation. The confluency for all cells at the time of assays was ˜95% to 100%.
(§3) Epic® beta version wavelength interrogation system (Corning Inc., Corning, N.Y.) was used for whole cell sensing. This system consists of a temperature-control unit, an optical detection unit, and an on-board liquid handling unit with robotics. The detection unit is centered on integrated fiber optics, and enables kinetic measures of cellular responses with a time interval of ˜15 sec.
(§4) To study the influence of molecules on a marker-induced response, a second stimulation with the marker at a fixed dose (typically at EC80 or EC100) was applied. The resonant wavelengths of all biosensors in the microplate were normalized again to establish a second baseline, right before the second stimulation. The two stimulations were usually separated by ˜1 hr.
(§5) All studies were carried out at a controlled temperature (28° C.). At least two independent sets of experiments, each with at least three replicates, were performed.
(§6) The DMR modulation index were generated against 4 markers across two distinct cell lines—the EGFR agonist EGF in A431 (EGF at 32 nM), and the EGFR agonist EGF in HT29 (EGF at 2 nM), the hERG activator mallotoxin (MTX) in HT29 (MTX at 16 micromlar), and the NTS1/NTS3 agonist neurotensin (NT) in HT29 (NT at 2 nM). The EGF responses in A431 cells include the early P-DMR event (˜5 min after EGF stimulation) and the subsequent N-DMR event (˜30 min after EGF stimulation). The EGF responses in HT29 include the early P-DMR event (˜5 min after EGF stimulation) and the late P-DMR event (˜50 min after EGF stimulation), whereas the mallotoxin response in HT29 is the P-DMR response 50 min after MTX stimulation, and the NT response in HT29 is the P-DMR 50 min after NT stimulation. In all cases, the amplitudes of respective DMR events were used as the basis to calculate the percentages of modulation by each inhibitor.

NT response in HT29 = test: Epic label-free DMR biosensor cellular assay, neurotensin marker in HT29; assay type: cell-based, human
Method: The NTS1 natural agonist neurotensin is known to activate the endogenous NTS1/NTS3 heterodimers in HT29 cells. […] Thus, neurotensin was chosen as an indirect marker for identifying potential EGFR inhibitors.
as §1, §2, §3, §4, §5, §6

[1] = system: mallotoxin response in HT29; test: Epic label-free DMR biosensor cellular assay, hERG activator mallotoxin marker in HT29
Method: HT29 expresses VEGFR1 (Flt1 receptor), but not other VEGF receptors.
as §1
as §2, with “starvation.” for “starvation. The confluency for all cells at the time of assays was ˜95% to 100%.”
as §3
For biosensor cellular assays, molecule solutions were made by diluting the stored concentrated solutions with the HBSS (1× Hanks balanced salt solution, plus 20 mM Hepes, pH 7.1), and transferred into a 384well polypropylene molecule storage plate to prepare a molecule source plate. Both molecule and marker source plates were made separately when a two-step assay was performed. In parallel, the cells were washed twice with the HBSS and maintained in 30 μl of the HBSS to prepare a cell assay plate. Both the cell assay plate and the molecule and marker source plate(s) were then incubated in the hotel of the reader system. After ˜1 hr of incubation the baseline wavelengths of all biosensors in the cell assay microplate were recorded and normalized to zero. Afterwards, a 2 to 10 minute continuous recording was carried out to establish a baseline, and to ensure that the cells reached a steady state. Cellular responses were then triggered by pipetting 10 μl of the marker solutions into the cell assay plate using the on-board liquid handler.
as §4, §5, §6

[2] = system: EGF response in A431 cells; test: Epic label-free DMR biosensor cellular assay, EGF marker in A431; assay type: cell-based, human
Method: as §1, §2, §3, §4, §5, §6

VEGFR1 (FLT1) = target: T1, VEGFR1 (FLT1) (Homo sapiens, UniProt P17948); test: LanthaScreen TR-FRET kinase assay, VEGFR1 (FLT1); assay type: biochemical
T1 construct: purchased Invitrogen
Method: (§7) LanthaScreen TR-FRET kinase assay reagents and the recombinant EGFR, VEGFR1 (FLT1), VEGFR2 (KDR) were purchased from Invitrogen. Known kinase inhibitors were used as positive controls.
(§8) Each EGFR reaction contains 51 ng/ml kinase, 2.4 μM ATP and 0.2 μM substrate. […] Each VEGFR2 (KDR) reaction contains 4 ng/ml kinase, 13 μM ATP and 0.2 μM substrate. Kinase reactions are allowed to proceed for 1 hour at room temperature before a 10 μl preparation of EDTA (20 mM) and Tb-labeled antibody (4 nM) in TR-FRET dilution buffer are added. The final concentration of antibody in the assay well is 2 nM, and the final concentration of EDTA is 10 mM. The plate is allowed to incubate at room temperature for at least 30 minutes before being read on a Tecan SafireII plate reader configured for LanthaScreen™ TR-FRET (Excitation at 340 nm, emission at 495 nm and 520 nm). The final readout is the emission ratio 520 nm/495 nm. Each data point is the average of 4 replicates.

EGFR [3] = target: T2, EGFR (Homo sapiens, UniProt P00533); test: LanthaScreen TR-FRET kinase assay, EGFR; assay type: biochemical; set-up: purchased Invitrogen; details: compounds at 25 micromolar; FIG. 1
VEGFR2 (KDR) = target: T3, VEGFR2 (KDR) (Homo sapiens, UniProt P35968); test: LanthaScreen TR-FRET kinase assay, VEGFR2 (KDR); assay type: biochemical; details: for inhibition of FRET signal of VEGFR2 tyrosine kinase: compounds at 25 micromolar, FIG. 3
T3 construct: purchased Invitrogen
Method: as §7, §8

EGFR [4] = target: T2, EGFR; details: known inhibitors; cited from earlier work
[5] = compounds at 25 micromolar, FIG. 2

T2 sequence (P00533 25-1210): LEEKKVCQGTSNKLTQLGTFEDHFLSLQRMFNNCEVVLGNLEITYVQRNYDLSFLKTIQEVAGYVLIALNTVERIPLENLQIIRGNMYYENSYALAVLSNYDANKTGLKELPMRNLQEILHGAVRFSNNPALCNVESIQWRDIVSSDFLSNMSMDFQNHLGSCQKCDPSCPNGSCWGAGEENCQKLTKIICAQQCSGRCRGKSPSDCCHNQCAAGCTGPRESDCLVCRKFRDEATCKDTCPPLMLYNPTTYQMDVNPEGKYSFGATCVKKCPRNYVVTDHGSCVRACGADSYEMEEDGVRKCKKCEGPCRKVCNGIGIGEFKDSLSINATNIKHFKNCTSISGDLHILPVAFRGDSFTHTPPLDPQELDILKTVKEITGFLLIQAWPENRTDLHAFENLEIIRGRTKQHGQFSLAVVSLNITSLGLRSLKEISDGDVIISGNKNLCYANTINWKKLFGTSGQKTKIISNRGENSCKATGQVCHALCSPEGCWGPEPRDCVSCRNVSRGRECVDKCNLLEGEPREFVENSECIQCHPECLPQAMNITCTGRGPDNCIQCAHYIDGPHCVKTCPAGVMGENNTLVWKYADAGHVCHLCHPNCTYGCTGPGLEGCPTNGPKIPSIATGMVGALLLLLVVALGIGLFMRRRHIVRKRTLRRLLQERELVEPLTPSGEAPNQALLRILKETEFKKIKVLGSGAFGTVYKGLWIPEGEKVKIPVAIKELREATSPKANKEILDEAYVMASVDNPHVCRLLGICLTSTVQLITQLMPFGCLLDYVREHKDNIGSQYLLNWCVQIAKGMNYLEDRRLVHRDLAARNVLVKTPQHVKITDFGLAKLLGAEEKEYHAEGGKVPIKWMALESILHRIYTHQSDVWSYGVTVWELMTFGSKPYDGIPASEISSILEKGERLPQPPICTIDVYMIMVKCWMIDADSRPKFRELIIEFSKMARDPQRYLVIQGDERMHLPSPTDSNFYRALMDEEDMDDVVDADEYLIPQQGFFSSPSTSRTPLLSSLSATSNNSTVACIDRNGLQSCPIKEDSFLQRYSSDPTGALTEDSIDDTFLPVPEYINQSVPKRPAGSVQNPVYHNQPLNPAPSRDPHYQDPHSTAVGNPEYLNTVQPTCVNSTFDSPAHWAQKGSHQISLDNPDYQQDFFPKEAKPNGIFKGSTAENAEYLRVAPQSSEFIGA
T3 sequence (P35968 20-1356): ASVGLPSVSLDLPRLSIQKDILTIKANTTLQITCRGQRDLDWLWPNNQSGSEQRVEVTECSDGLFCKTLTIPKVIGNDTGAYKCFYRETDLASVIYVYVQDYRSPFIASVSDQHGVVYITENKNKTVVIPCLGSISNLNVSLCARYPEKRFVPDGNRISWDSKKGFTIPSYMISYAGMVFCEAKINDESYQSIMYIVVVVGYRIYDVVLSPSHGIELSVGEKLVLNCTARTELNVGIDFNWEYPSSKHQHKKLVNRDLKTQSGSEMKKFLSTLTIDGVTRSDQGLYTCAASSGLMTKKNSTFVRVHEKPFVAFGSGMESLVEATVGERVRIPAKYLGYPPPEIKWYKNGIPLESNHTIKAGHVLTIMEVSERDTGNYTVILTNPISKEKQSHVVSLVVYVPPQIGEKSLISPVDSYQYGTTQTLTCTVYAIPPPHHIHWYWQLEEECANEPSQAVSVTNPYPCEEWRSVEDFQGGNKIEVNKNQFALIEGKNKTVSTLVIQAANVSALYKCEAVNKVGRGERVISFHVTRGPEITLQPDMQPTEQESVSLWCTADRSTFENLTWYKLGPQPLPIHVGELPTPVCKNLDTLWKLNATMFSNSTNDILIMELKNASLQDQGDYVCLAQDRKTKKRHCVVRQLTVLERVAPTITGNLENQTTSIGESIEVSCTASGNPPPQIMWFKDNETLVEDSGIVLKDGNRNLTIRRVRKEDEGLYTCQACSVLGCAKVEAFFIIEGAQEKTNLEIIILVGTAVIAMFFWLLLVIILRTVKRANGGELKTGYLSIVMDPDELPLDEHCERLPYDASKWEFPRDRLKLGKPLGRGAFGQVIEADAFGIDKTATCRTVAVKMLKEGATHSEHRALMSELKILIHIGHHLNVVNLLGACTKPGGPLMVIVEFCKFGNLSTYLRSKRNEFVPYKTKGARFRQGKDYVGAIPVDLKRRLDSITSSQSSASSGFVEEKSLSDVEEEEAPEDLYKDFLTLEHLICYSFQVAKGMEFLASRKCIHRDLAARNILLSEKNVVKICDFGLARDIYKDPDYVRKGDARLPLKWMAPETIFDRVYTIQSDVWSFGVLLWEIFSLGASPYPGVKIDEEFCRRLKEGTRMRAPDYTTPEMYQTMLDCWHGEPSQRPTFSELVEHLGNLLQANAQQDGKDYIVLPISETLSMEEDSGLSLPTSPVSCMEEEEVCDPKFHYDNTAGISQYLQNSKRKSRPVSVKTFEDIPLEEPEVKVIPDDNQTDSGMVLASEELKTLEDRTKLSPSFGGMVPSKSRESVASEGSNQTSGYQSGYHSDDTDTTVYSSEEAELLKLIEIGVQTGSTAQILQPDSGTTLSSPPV
T1 sequence (P17948 27-1338): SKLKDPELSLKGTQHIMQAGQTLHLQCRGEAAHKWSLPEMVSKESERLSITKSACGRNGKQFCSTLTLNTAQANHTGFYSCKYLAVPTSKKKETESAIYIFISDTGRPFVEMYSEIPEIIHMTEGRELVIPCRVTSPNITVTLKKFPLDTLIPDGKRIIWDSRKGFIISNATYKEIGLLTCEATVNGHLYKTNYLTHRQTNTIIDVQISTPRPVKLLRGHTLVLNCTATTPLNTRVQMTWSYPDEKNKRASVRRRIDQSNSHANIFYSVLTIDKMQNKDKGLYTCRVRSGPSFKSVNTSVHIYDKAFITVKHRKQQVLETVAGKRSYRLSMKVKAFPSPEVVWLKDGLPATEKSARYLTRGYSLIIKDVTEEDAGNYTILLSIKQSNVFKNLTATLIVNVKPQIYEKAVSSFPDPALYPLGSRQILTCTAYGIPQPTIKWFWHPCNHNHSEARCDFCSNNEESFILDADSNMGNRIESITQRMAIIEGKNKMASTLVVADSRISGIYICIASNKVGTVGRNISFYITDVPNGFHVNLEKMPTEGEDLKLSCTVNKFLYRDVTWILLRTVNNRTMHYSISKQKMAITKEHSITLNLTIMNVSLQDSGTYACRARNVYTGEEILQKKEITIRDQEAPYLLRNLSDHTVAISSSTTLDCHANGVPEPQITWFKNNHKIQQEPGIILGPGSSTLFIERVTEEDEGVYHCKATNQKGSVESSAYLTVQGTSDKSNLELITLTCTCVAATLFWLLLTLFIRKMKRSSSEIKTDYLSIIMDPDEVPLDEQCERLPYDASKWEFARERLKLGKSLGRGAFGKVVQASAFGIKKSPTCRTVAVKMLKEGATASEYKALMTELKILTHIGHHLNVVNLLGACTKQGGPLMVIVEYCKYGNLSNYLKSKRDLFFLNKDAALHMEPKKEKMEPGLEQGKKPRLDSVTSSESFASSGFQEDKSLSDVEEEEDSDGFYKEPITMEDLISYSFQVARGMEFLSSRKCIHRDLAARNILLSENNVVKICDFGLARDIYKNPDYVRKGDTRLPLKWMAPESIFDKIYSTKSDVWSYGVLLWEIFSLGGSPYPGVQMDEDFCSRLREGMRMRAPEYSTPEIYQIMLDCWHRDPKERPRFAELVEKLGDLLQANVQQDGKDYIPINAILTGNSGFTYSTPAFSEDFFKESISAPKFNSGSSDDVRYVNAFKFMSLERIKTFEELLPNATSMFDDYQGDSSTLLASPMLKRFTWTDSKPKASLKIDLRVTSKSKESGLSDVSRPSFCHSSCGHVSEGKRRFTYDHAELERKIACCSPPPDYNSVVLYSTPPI

VEGF
DMR signal triggered (HT29 cells): very small DMR signal

c1ccc(-c2cnc(Nc3ccc(OCCN4CCCC4)cc3)s2)cc1 [Flt3 inhibitor III, (5-Phenyl-thiazol-2-yl)-(4-(2-pyrrolidin-1-yl-ethoxy)-phenyl)-amine]
impact on DMR signal of EGF in HT29 (EGF response in HT29; EGF at 2 nM): little impact
impact on DMR signal of NT in HT29 (NT response in HT29; NT at 2 nM): little impact
impact on DMR signal of MTX in HT29 ([1]; MTX at 16 micromolar): little impact
impact on DMR signal of EGF in A431 ([2]; EGF at 32 nM): little impact

CN[C@@H]1C[C@H]2O[C@@](C)([C@@H]1OC)n1c3ccccc3c3c4c(c5c6ccccc6n2c5c31)C(=O)NC4 [staurosporine, reference compound]
inhibition of FRET signal of VEGFR1 tyrosine kinase (VEGFR1 (FLT1); at 10 micromolar): completely inhibited

Cc1csc2c1sc1cc(C(=O)O)sc12 [Compound K, 5-methyldithieno[3,2-b:2′3′-d] thiophene-2-carboxyl acid]
inhibition of FRET signal of EGFR tyrosine kinase (EGFR [3]): less potent than the others
inhibition of FRET signal of VEGFR1 tyrosine kinase (VEGFR1 (FLT1); [5]): less potent than the others
inhibition of FRET signal of VEGFR2 tyrosine kinase (VEGFR2 (KDR)): less potent than the others

O=C1Nc2ccc(Br)cc2/C1=C/c1cc2c([nH]1)CCCC2 [VEGFR2 tyrosine kinase inhibitor II, (Z)-5-Bromo-3-(4,5,6,7-tetrahydro-1H-indol-2-ylmethylene)-1,3-dihydroindol-2-one]
impact on DMR signal of EGF in HT29 (EGF response in HT29; EGF at 2 nM): little impact
impact on DMR signal of NT in HT29 (NT response in HT29; NT at 2 nM): little impact
impact on DMR signal of MTX in HT29 ([1]; MTX at 16 micromolar): little impact
impact on DMR signal of EGF in A431 ([2]; EGF at 32 nM): little impact

CCCCCCc1csc2c(CCCCCC)c(C(=O)O)sc12 [Compound J, 3,6-Dihexyl-thieno[3,2-b]thiophene-2-carboxylic acid]
inhibition of FRET signal of EGFR tyrosine kinase (EGFR [3]): less potent than the others
inhibition of FRET signal of VEGFR1 tyrosine kinase (VEGFR1 (FLT1); [5]): less potent than the others
inhibition of FRET signal of VEGFR2 tyrosine kinase (VEGFR2 (KDR)): less potent than the others

COc1cc2ncnc(Nc3cccc(Cl)c3)c2cc1OC [AG1478]
impact on DMR signal of NT in HT29 (NT response in HT29; NT at 2 nM): partial inhibition
impact on DMR signal of MTX in HT29 ([1]; MTX at 16 micromolar): partial inhibition

C[C@@H](N)[C@H]1CC[C@H](C(=O)Nc2ccncc2)CC1 [Compound Y-27632, reference compound]
attenuation of FRET signal for VEGFR2 tyrosine kinase (VEGFR2 (KDR); concentration not given): significantly attenuated

CCOC(=O)c1c(C)[nH]c(/C=C2\C(=O)Nc3ccccc32)c1C [VEGFR2 tyrosine kinase inhibitor I, (Z)-3-[(2,4-Dimethyl-3-(ethoxycarbonyl)pyrrol-5-yl)methylidenyl]indolin-2-one]
impact on DMR signal of EGF in HT29 (EGF response in HT29; EGF at 2 nM): little impact
impact on DMR signal of NT in HT29 (NT response in HT29; NT at 2 nM): little impact
impact on DMR signal of MTX in HT29 ([1]; MTX at 16 micromolar): little impact
impact on DMR signal of EGF in A431 ([2]; EGF at 32 nM): little impact

CCCCCCCCCCc1csc2c(CCCCCC)c(C(=O)O)sc12 [I]
modulation of EGF response in HT29, early P-DMR (EGF response in HT29; EGF at 2 nM, early P-DMR ~5 min after EGF stimulation): −70%
modulation of EGF response in HT29, late P-DMR (EGF response in HT29; EGF at 2 nM, late P-DMR ~50 min after EGF stimulation): −100%
modulation index score, EGF in HT29 early P-DMR (EGF response in HT29; score = modulation percentage/10, 3rd coordinate): −7
modulation index score, EGF in HT29 late P-DMR (EGF response in HT29; score = modulation percentage/10, 4th coordinate): −10
modulation of NT response in HT29, P-DMR (NT response in HT29; NT at 2 nM, P-DMR 50 min after NT stimulation): −106%
modulation index score, NT in HT29 P-DMR (NT response in HT29; score = modulation percentage/10, 6th coordinate): −10.6
modulation of MTX response in HT29, P-DMR ([1]; MTX at 16 micromolar, P-DMR 50 min after MTX stimulation): −60%
modulation index score, MTX in HT29 P-DMR ([1]; score = modulation percentage/10, 5th coordinate): −6
modulation of EGF response in A431, N-DMR ([2]; EGF at 32 nM, N-DMR ~30 min after EGF stimulation): −65%
modulation of EGF response in A431, early P-DMR ([2]; EGF at 32 nM, early P-DMR ~5 min after EGF stimulation): −60%
modulation index score, EGF in A431 N-DMR ([2]; score = modulation percentage/10, 2nd coordinate): −6.5

CCCCCCc1csc2cc(C(=O)O)sc12 [Compound H, 6-hexyl-thieno[3,2-b]thiophene-2-carboxylic acid]
inhibition of FRET signal of EGFR tyrosine kinase (EGFR [3]): less potent than the others
inhibition of FRET signal of VEGFR1 tyrosine kinase (VEGFR1 (FLT1); [5]): less potent than the others
inhibition of FRET signal of VEGFR2 tyrosine kinase (VEGFR2 (KDR)): less potent than the others

6H-Indeno[1,2-e]tetrazolo[1,5-b][1,2,4]triazin-6-one & 10H-Indeno[2,1-e]tetrazolo[1,5-b][1,2,4]triazin-10-one [dual PDK1/AKT/Flt1 pathway inhibitor]
effect on early P-DMR event of the EGF response in HT29 (EGF response in HT29; EGF at 2 nM, early P-DMR): almost completely attenuated
effect on late P-DMR event of the EGF response in HT29 (EGF response in HT29; EGF at 2 nM, late P-DMR): almost completely attenuated
effect on early P-DMR event in the EGF response in A431 ([2]; EGF at 32 nM, early P-DMR): almost completely attenuated

O=C(O)c1cc(N(Cc2ccccc2O)Cc2cc(O)ccc2O)ccc1O [Lavendustin A]
strength as EGFR inhibitor (EGFR [4]): weak EGFR inhibitor
